# System: Pseudomonas putida
# Assay: Sonication (20 kHz horn probe) of Pigment Red 23 dispersion with biocide, streaking on Nutrient Agar plates
# Assay type: cell-based
# Design: key: −: no bacterial colonies detected; +: light contamination (10^0 and 10^3 cfu/ml); ++: moderate contamination(10^3-10^5 cfu/ml); +++: heavy contamination(>10^5 cfu/ml)
# From the text: A mixture of Pigment Red 23, available from Ciba Specialty Chemicals(UK) Ltd., 215.5 parts, Emulan OG (RTM) (35% solution in water), available from BASF, 153.7 parts, tributyl phosphate, available from Albright & Wilson, 2 parts, and water, 128.8 parts, are dispersed by re-circulation through a Bachofen KDL200 bead-mill until colouristic properties are within specification of UNISPERSE (RTM) Red RBS-PI, available from Ciba Specialty Chemicals(UK) Ltd., and adjusted to pH 8.0-8.5 with 20% sodium hydroxide solution. This material is identified as containing the Gram negative bacterium, Pseudomonas putida. 50 millilitre aliquots of this dispersion containing levels of glutaraldehyde (pentane-1,5-dialdehyde), available as the trade product Protectol GDA form BASF or Ucarcide from Union Carbide, between 0 parts per million (ppm) and 2000 ppm are sonicated using a Branson MSE sonicator with a 19 mm horn probe resonating at 20 kHz with an amplitude of 6 microns. Sonication is undertaken in a 100 millilitre glass beaker, diameter 38 mm, with magnetic flea agitator and cooled in a water/ice bath to maintain temperature at 28-32° C. Bacterial growth in each sample is assessed at 5 minute intervals by streaking each dispersion on to Nutrient Agar(NA) plates and incubating the plates for a minimum of 48 hours at 30° C. The plates are then examined for bacterial colonies and expressed according to the following notation:
# The resistance of the pigment dispersion produced according to the process of the invention to further bacterial growth is recorded by continued observation of the samples of Table 1 over a period of up to 90 days. […]
compound,measurement,setting,value
"O=CCCCC=O [glutaraldehyde, pentane-1,5-dialdehyde]","further bacterial growth, samples of Table 1","10 ppm, Time 1 (days) after sonication",−
same,"further bacterial growth, samples of Table 1","10 ppm, Time 2 (days) after sonication",−
same,"further bacterial growth, samples of Table 1","10 ppm, Time 3 (days) after sonication",−
same,"further bacterial growth, samples of Table 1","10 ppm, Time 7 (days) after sonication",−
same,"further bacterial growth, samples of Table 1","10 ppm, Time 14 (days) after sonication",−
same,"further bacterial growth, samples of Table 1","10 ppm, Time 28 (days) after sonication",−
same,"further bacterial growth, samples of Table 1","10 ppm, Time 90 (days) after sonication",−
same,bacterial colonies on Nutrient Agar,"10 ppm, sonicated 0 mins.",+++ (heavy contamination(>10^5 cfu/ml))
same,bacterial colonies on Nutrient Agar,"10 ppm, sonicated 5 mins.",+++ (heavy contamination(>10^5 cfu/ml))
same,bacterial colonies on Nutrient Agar,"10 ppm, sonicated 10 mins.",+++ (heavy contamination(>10^5 cfu/ml))
same,bacterial colonies on Nutrient Agar,"10 ppm, sonicated 15 mins.",++ (moderate contamination(10^3-10^5 cfu/ml))
same,bacterial colonies on Nutrient Agar,"10 ppm, sonicated 20 mins.",+ (light contamination (10^0 and 10^3 cfu/ml))
same,bacterial colonies on Nutrient Agar,"10 ppm, sonicated 25 mins.",+ (light contamination (10^0 and 10^3 cfu/ml))
same,bacterial colonies on Nutrient Agar,"10 ppm, sonicated 30 mins.",−
same,"further bacterial growth, samples of Table 1","25 ppm, Time 1 (days) after sonication",−
same,"further bacterial growth, samples of Table 1","25 ppm, Time 2 (days) after sonication",−
same,"further bacterial growth, samples of Table 1","25 ppm, Time 3 (days) after sonication",−
same,"further bacterial growth, samples of Table 1","25 ppm, Time 7 (days) after sonication",−
same,"further bacterial growth, samples of Table 1","25 ppm, Time 14 (days) after sonication",−
same,"further bacterial growth, samples of Table 1","25 ppm, Time 28 (days) after sonication",−
same,"further bacterial growth, samples of Table 1","25 ppm, Time 90 (days) after sonication",−
same,bacterial colonies on Nutrient Agar,"25 ppm, sonicated 0 mins.",+++ (heavy contamination(>10^5 cfu/ml))
same,bacterial colonies on Nutrient Agar,"25 ppm, sonicated 5 mins.",++ (moderate contamination(10^3-10^5 cfu/ml))
same,bacterial colonies on Nutrient Agar,"25 ppm, sonicated 10 mins.",−
same,bacterial colonies on Nutrient Agar,"25 ppm, sonicated 15 mins.",−
same,bacterial colonies on Nutrient Agar,"25 ppm, sonicated 20 mins.",−
same,bacterial colonies on Nutrient Agar,"25 ppm, sonicated 25 mins.",−
same,bacterial colonies on Nutrient Agar,"25 ppm, sonicated 30 mins.",−
same,"further bacterial growth, samples of Table 1","50 ppm, Time 1 (days) after sonication",−
same,"further bacterial growth, samples of Table 1","50 ppm, Time 2 (days) after sonication",−
same,"further bacterial growth, samples of Table 1","50 ppm, Time 3 (days) after sonication",−
same,"further bacterial growth, samples of Table 1","50 ppm, Time 7 (days) after sonication",−
same,"further bacterial growth, samples of Table 1","50 ppm, Time 14 (days) after sonication",−
same,"further bacterial growth, samples of Table 1","50 ppm, Time 28 (days) after sonication",−
same,"further bacterial growth, samples of Table 1","50 ppm, Time 90 (days) after sonication",−
same,bacterial colonies on Nutrient Agar,"50 ppm, sonicated 0 mins.",+++ (heavy contamination(>10^5 cfu/ml))
same,bacterial colonies on Nutrient Agar,"50 ppm, sonicated 5 mins.",++ (moderate contamination(10^3-10^5 cfu/ml))
same,bacterial colonies on Nutrient Agar,"50 ppm, sonicated 10 mins.",−
same,bacterial colonies on Nutrient Agar,"50 ppm, sonicated 15 mins.",++ (moderate contamination(10^3-10^5 cfu/ml))
same,bacterial colonies on Nutrient Agar,"50 ppm, sonicated 20 mins.",−
same,bacterial colonies on Nutrient Agar,"50 ppm, sonicated 25 mins.",−
same,bacterial colonies on Nutrient Agar,"50 ppm, sonicated 30 mins.",−
same,"further bacterial growth, samples of Table 1","75 ppm, Time 1 (days) after sonication",−
same,"further bacterial growth, samples of Table 1","75 ppm, Time 2 (days) after sonication",−
same,"further bacterial growth, samples of Table 1","75 ppm, Time 3 (days) after sonication",−
same,"further bacterial growth, samples of Table 1","75 ppm, Time 7 (days) after sonication",−
same,"further bacterial growth, samples of Table 1","75 ppm, Time 14 (days) after sonication",−
same,"further bacterial growth, samples of Table 1","75 ppm, Time 28 (days) after sonication",−
same,"further bacterial growth, samples of Table 1","75 ppm, Time 90 (days) after sonication",−
same,bacterial colonies on Nutrient Agar,"75 ppm, sonicated 0 mins.",+++ (heavy contamination(>10^5 cfu/ml))
same,bacterial colonies on Nutrient Agar,"75 ppm, sonicated 5 mins.",−
same,bacterial colonies on Nutrient Agar,"75 ppm, sonicated 10 mins.",−
same,bacterial colonies on Nutrient Agar,"75 ppm, sonicated 15 mins.",−
same,bacterial colonies on Nutrient Agar,"75 ppm, sonicated 20 mins.",−
same,bacterial colonies on Nutrient Agar,"75 ppm, sonicated 25 mins.",−
same,bacterial colonies on Nutrient Agar,"75 ppm, sonicated 30 mins.",−
same,"further bacterial growth, samples of Table 1","100 ppm, Time 1 (days) after sonication",−
same,"further bacterial growth, samples of Table 1","100 ppm, Time 2 (days) after sonication",−
same,"further bacterial growth, samples of Table 1","100 ppm, Time 3 (days) after sonication",−
same,"further bacterial growth, samples of Table 1","100 ppm, Time 7 (days) after sonication",−
same,"further bacterial growth, samples of Table 1","100 ppm, Time 14 (days) after sonication",−
same,"further bacterial growth, samples of Table 1","100 ppm, Time 28 (days) after sonication",−
same,"further bacterial growth, samples of Table 1","100 ppm, Time 90 (days) after sonication",−
same,bacterial colonies on Nutrient Agar,"100 ppm, sonicated 0 mins.",+++ (heavy contamination(>10^5 cfu/ml))
same,bacterial colonies on Nutrient Agar,"100 ppm, sonicated 5 mins.",+ (light contamination (10^0 and 10^3 cfu/ml))
same,bacterial colonies on Nutrient Agar,"100 ppm, sonicated 10 mins.",+ (light contamination (10^0 and 10^3 cfu/ml))
same,bacterial colonies on Nutrient Agar,"100 ppm, sonicated 15 mins.",−
same,bacterial colonies on Nutrient Agar,"100 ppm, sonicated 20 mins.",−
same,bacterial colonies on Nutrient Agar,"100 ppm, sonicated 25 mins.",−
same,bacterial colonies on Nutrient Agar,"100 ppm, sonicated 30 mins.",−
same,"further bacterial growth, samples of Table 1","150 ppm, Time 1 (days) after sonication",−
same,"further bacterial growth, samples of Table 1","150 ppm, Time 2 (days) after sonication",−
same,"further bacterial growth, samples of Table 1","150 ppm, Time 3 (days) after sonication",−
same,"further bacterial growth, samples of Table 1","150 ppm, Time 7 (days) after sonication",−
same,"further bacterial growth, samples of Table 1","150 ppm, Time 14 (days) after sonication",−
same,"further bacterial growth, samples of Table 1","150 ppm, Time 28 (days) after sonication",−
same,"further bacterial growth, samples of Table 1","150 ppm, Time 90 (days) after sonication",−
same,bacterial colonies on Nutrient Agar,"150 ppm, sonicated 0 mins.",+++ (heavy contamination(>10^5 cfu/ml))
same,bacterial colonies on Nutrient Agar,"150 ppm, sonicated 5 mins.",−
same,bacterial colonies on Nutrient Agar,"150 ppm, sonicated 10 mins.",−
same,bacterial colonies on Nutrient Agar,"150 ppm, sonicated 15 mins.",−
same,bacterial colonies on Nutrient Agar,"150 ppm, sonicated 20 mins.",−
same,bacterial colonies on Nutrient Agar,"150 ppm, sonicated 25 mins.",−
same,bacterial colonies on Nutrient Agar,"150 ppm, sonicated 30 mins.",−
same,"further bacterial growth, samples of Table 1","500 ppm, Time 1 (days) after sonication",−
same,"further bacterial growth, samples of Table 1","500 ppm, Time 2 (days) after sonication",−
same,"further bacterial growth, samples of Table 1","500 ppm, Time 3 (days) after sonication",−
same,"further bacterial growth, samples of Table 1","500 ppm, Time 7 (days) after sonication",−
same,"further bacterial growth, samples of Table 1","500 ppm, Time 14 (days) after sonication",−
same,"further bacterial growth, samples of Table 1","500 ppm, Time 28 (days) after sonication",−
same,"further bacterial growth, samples of Table 1","500 ppm, Time 90 (days) after sonication",−
same,bacterial colonies on Nutrient Agar,"500 ppm, sonicated 0 mins.",+++ (heavy contamination(>10^5 cfu/ml))
same,bacterial colonies on Nutrient Agar,"500 ppm, sonicated 5 mins.",−
same,bacterial colonies on Nutrient Agar,"500 ppm, sonicated 10 mins.",−
same,bacterial colonies on Nutrient Agar,"500 ppm, sonicated 15 mins.",−
same,bacterial colonies on Nutrient Agar,"500 ppm, sonicated 20 mins.",−
same,bacterial colonies on Nutrient Agar,"500 ppm, sonicated 25 mins.",−
same,bacterial colonies on Nutrient Agar,"500 ppm, sonicated 30 mins.",−
same,"further bacterial growth, samples of Table 1","1000 ppm, Time 1 (days) after sonication",−
same,"further bacterial growth, samples of Table 1","1000 ppm, Time 2 (days) after sonication",−
same,"further bacterial growth, samples of Table 1","1000 ppm, Time 3 (days) after sonication",−
same,"further bacterial growth, samples of Table 1","1000 ppm, Time 7 (days) after sonication",−
same,"further bacterial growth, samples of Table 1","1000 ppm, Time 14 (days) after sonication",−
same,"further bacterial growth, samples of Table 1","1000 ppm, Time 28 (days) after sonication",−
same,"further bacterial growth, samples of Table 1","1000 ppm, Time 90 (days) after sonication",−
same,bacterial colonies on Nutrient Agar,"1000 ppm, sonicated 0 mins.",+++ (heavy contamination(>10^5 cfu/ml))
same,bacterial colonies on Nutrient Agar,"1000 ppm, sonicated 5 mins.",−
same,bacterial colonies on Nutrient Agar,"1000 ppm, sonicated 10 mins.",−
same,bacterial colonies on Nutrient Agar,"1000 ppm, sonicated 15 mins.",−
same,bacterial colonies on Nutrient Agar,"1000 ppm, sonicated 20 mins.",−
same,bacterial colonies on Nutrient Agar,"1000 ppm, sonicated 25 mins.",−
same,bacterial colonies on Nutrient Agar,"1000 ppm, sonicated 30 mins.",−
same,"further bacterial growth, samples of Table 1","2000 ppm, Time 1 (days) after sonication",−
same,"further bacterial growth, samples of Table 1","2000 ppm, Time 2 (days) after sonication",−
same,"further bacterial growth, samples of Table 1","2000 ppm, Time 3 (days) after sonication",−
same,"further bacterial growth, samples of Table 1","2000 ppm, Time 7 (days) after sonication",−
same,"further bacterial growth, samples of Table 1","2000 ppm, Time 14 (days) after sonication",−
same,"further bacterial growth, samples of Table 1","2000 ppm, Time 28 (days) after sonication",−
same,"further bacterial growth, samples of Table 1","2000 ppm, Time 90 (days) after sonication",−
same,bacterial colonies on Nutrient Agar,"2000 ppm, sonicated 0 mins.",+++ (heavy contamination(>10^5 cfu/ml))
same,bacterial colonies on Nutrient Agar,"2000 ppm, sonicated 5 mins.",−
same,bacterial colonies on Nutrient Agar,"2000 ppm, sonicated 10 mins.",−
same,bacterial colonies on Nutrient Agar,"2000 ppm, sonicated 15 mins.",−
same,bacterial colonies on Nutrient Agar,"2000 ppm, sonicated 20 mins.",−
same,bacterial colonies on Nutrient Agar,"2000 ppm, sonicated 25 mins.",−
same,bacterial colonies on Nutrient Agar,"2000 ppm, sonicated 30 mins.",−
